# Laboratory results as given in article PMC12195967, “Cobalt(II) Complexes of 4′–Nitro–Fenamic Acid: Characterization and Biological Evaluation” (Molecules, 2025).
# Key:
# [1] = DPPH radical scavenging; conditions: compounds 0.1 mM, DPPH 0.1 mM in ethanol
# Procedure: Antioxidant compounds able to neutralize DPPH radicals are increasingly recognized due to their capability of combating cancer, slowing down the aging process and regulating inflammation. As a result, they could potentially offer protection against rheumatoid arthritis and inflammation. […] In this experiment, NDGA and BHT were used as reference compounds and measurements took place at 30 min and 60 min. […] Such low scavenging activity of DPPH radicals is rather common for metal–NSAID complexes.
# S1 Antioxidant activity assay
# The antioxidant activity of the compound was evaluated via the ability to scavenge in vitro free radicals such as DPPH and ABTS and to reduce H2O2. All the experiments were carried out at least in triplicate and the standard deviation of absorbance was less than 10% […]
# S1.1 Determination of the reducing activity of the radical DPPH
# To an ethanolic solution of DPPH (0.1 mM) an equal volume solution of the compounds (0.1 mM) in ethanol was added. Absolute ethanol was also used as control solution. The absorbance at 517 nm was recorded at room temperature after 30 and 60 min in order to examine the possible existence of a potential time−dependence of the DPPH radical scavenging activity.[1] The DPPH−scavenging activity of the compounds was expressed as the percentage reduction of the absorbance values of the initial DPPH solution (DPPH%). NDGA and BHT were used as reference compounds. […]
# [2] = tested on: CT DNA; assay: DNA-melting temperature of CT DNA in presence of the compounds; assay type: binding, calf; conditions: compound–DNA ratio 1:50; for Tm of CT DNA in the presence of the compound: CT DNA alone Tm 80.7 °C; for ΔTm of CT DNA: versus CT DNA alone 80.7 °C
# From the text: In order to further clarify the interaction mode of the compounds with CT DNA, the effect of the temperature of this interaction was also investigated. Within this context, the thermal denaturation of DNA in the presence of the compounds was studied with UV-vis spectroscopy in order to calculate (via a sigmoidal fitting of the experimental data) the DNA-melting temperature (Tm), i.e., the temperature at which half of double-stranded DNA is denatured (“melted”) to single-stranded DNA.
# S3 Binding studies with CT DNA
# In order to study the interaction of the compounds with DNA, the compound was initially dissolved in DMSO (1 mM). Mixing of such solutions with the aqueous buffer solutions of DNA used in the studies never exceeded 5% DMSO (v/v) in the final solution, which was needed due to low aqueous solubility of most compounds. In all experiments, the effect of DMSO on the data has been taken into consideration and the appropriate corrections have been performed. The interaction of the compound with CT DNA was monitored by UV−vis spectroscopy, and viscosity measurements, and via competitive studies with EB by fluorescence emission spectroscopy. […]
# S3.2 Determination of the DNA–melting temperature (Tm)
# The UV–vis spectra of a CT DNA solution (1.25×10–4 M) in the presence of the compounds (2.5×10–6 M) were recorded upon increasing the temperature. The obtained data are presented as normalized absorbance at 260 nm (Normalized A(260 nm)) versus temperature (T (ºC)). A sigmoidal fitting of the data was applied for each compound and the melting temperature Tm (temperature with normalized absorbance of 0.5) was determined. […]
# [3] = biological target: T1, bovine serum albumin (BSA) (Bos taurus, UniProt P02769); assay: Competitive albumin-fluorescence studies with warfarin and ibuprofen; assay type: binding; conditions: for preferential BSA-binding site: from comparison of K with and without site markers; for K(BSA, ibuprofen): in the presence of ibuprofen; for K(BSA, warfarin): in the presence of warfarin
# T1 construct: purchased Sigma-Aldrich Co
# T1 sequence (P02769 25-607): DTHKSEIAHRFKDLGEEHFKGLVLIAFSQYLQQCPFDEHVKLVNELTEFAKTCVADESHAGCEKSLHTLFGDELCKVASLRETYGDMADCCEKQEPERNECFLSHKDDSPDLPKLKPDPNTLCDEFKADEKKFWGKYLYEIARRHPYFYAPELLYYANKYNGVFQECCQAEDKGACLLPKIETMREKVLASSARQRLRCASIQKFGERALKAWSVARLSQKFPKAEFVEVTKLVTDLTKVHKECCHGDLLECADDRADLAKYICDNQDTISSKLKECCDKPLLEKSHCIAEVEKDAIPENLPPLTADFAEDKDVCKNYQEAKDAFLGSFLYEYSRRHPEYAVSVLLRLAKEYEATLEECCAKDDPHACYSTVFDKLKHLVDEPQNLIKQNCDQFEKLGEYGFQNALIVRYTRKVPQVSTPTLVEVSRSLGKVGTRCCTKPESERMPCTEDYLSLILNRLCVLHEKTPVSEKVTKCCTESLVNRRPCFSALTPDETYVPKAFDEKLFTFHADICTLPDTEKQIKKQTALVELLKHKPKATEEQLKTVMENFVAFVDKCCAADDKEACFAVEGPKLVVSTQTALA
# From the text: (§1) One of the primary functions of SAs is the transport of various compounds such as drugs, fatty acids and hormones. Albumins are composed of three domains, I, II and III, and each of them is subdivided into A and B subdomains that host compounds [90]. […] Site markers like warfarin and ibuprofen are used to identify in which albumin site a compound is bound, as these markers bind selectively to Sudlow’s sites I and II, respectively. The SA-binding site of the compounds was investigated by calculating the SA-binding constant for both HSA and BSA in the presence of ibuprofen or warfarin and comparing them with the values previously derived (in the absence of any marker).
# (§2) Incremental addition of the compounds into a solution containing the SA (HSA or BSA) and the respective site marker (warfarin or ibuprofen) induced quenching of the initial fluorescence emission band (Figures S19–S22). The SA-binding constants for each compound in the presence of warfarin or ibuprofen were calculated with the Scatchard equation (Equation (S7)) and the corresponding plots (Figures S23–S26) and are compared with those calculated in the absence of any site marker to determine the preferable drug site. […]
# (§3) From the Scatchard equation:
# (§4) [Q] = nK − K Io (equation S7) where n is the number of binding sites per albumin and K is the albumin−binding constant (K, in M−1) is calculated from the slope in plots (ΔI/Io)/[compound] versus (ΔI/Io) and n is given by the ratio of y intercept to the slope.
# (§5) S5.2 Competitive albumin−fluorescence studies with warfarin and ibuprofen The competitive studies with warfarin or ibuprofen (as site−markers) were performed by tryptophan fluorescence quenching experiments using a fixed concentration of the albumin and site markers (3 μM) in buffer (containing 15 mM trisodium citrate and 150 mM NaCl at pH 7.0). The fluorescence emission spectra were recorded in the presence of increasing amounts of the compounds as quenchers with an excitation wavelength of 295 nm. The Scatchard equation (equation S7) and plots were applied on the corrected albumin−fluorescence emission spectra to determine the albumin−binding constant of the compounds in the presence of warfarin or ibuprofen.
# [4] = biological target: T2, human serum albumin (HSA) (Homo sapiens, UniProt P02768); assay: as above; assay type: binding; conditions: for K(HSA, ibuprofen): in the presence of ibuprofen; for K(HSA, warfarin): in the presence of warfarin
# T2 construct: purchased Sigma-Aldrich Co
# T2 sequence (P02768 25-609): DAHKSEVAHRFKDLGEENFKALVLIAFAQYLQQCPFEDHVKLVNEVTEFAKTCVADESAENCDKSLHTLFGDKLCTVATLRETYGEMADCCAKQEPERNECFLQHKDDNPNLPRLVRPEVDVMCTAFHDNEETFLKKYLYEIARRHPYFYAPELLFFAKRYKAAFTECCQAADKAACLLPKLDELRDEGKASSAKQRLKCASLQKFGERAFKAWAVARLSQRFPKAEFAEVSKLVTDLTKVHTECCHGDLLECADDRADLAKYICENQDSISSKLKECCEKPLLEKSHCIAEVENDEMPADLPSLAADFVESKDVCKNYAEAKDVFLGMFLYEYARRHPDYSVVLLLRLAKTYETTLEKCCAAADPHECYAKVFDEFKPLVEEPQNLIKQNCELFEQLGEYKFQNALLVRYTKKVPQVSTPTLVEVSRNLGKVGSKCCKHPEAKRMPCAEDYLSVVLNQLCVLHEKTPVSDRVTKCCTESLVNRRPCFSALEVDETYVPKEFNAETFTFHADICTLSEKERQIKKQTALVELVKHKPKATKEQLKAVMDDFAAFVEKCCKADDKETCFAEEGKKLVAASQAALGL
# From the text: as §1, §2, §3, §4, §5
Compound,"%DPPH-scavenging ability (DPPH%), 30 min [1]","%DPPH-scavenging ability (DPPH%), 60 min [1]",Tm of CT DNA in the presence of the compound [2],ΔTm of CT DNA [2],preferential BSA-binding site [3],"K(BSA, ibuprofen) [3]","K(BSA, warfarin) [3]","K(HSA, ibuprofen) [4]","K(HSA, warfarin) [4]"
"C[O-].C[O-].Cc1ccc2ccc3ccc(C)nc3c2n1.Cc1ccc2ccc3ccc(C)nc3c2n1.O=C([O-])c1ccccc1Nc1ccc([N+](=O)[O-])cc1.O=C([O-])c1ccccc1Nc1ccc([N+](=O)[O-])cc1.[Co+2].[Co+2] [Complex 4, [Co2(4′–NO2–fen)2(μ–CH3O)2(neoc)2]]",Not active,Not active,73.9 °C,negative,Sudlow’s site I,3.60 (±0.14) × 10^5 M^−1,2.40 (±0.06) × 10^5 M^−1,3.04 (±0.15) × 10^5 M^−1,5.00 (±0.18) × 10^5 M^−1
"O=C([O-])c1ccccc1Nc1ccc([N+](=O)[O-])cc1.O=C([O-])c1ccccc1Nc1ccc([N+](=O)[O-])cc1.[Co+2].c1cnc2c(c1)ccc1cccnc12 [Complex 3, [Co(4′–NO2–fen)2(phen)]]",Not active,Not active,84.7 °C,,Sudlow’s site I,1.95 (±0.03) × 10^5 M^−1,1.60 (±0.06) × 10^5 M^−1,5.23 (±0.17) × 10^4 M^−1,4.80 (±0.17) × 10^5 M^−1
"O=C([O-])c1ccccc1Nc1ccc([N+](=O)[O-])cc1.O=C([O-])c1ccccc1Nc1ccc([N+](=O)[O-])cc1.[Co+2].c1ccc(Nc2ccccn2)nc1 [Complex 2, [Co(4′–NO2–fen)2(bipyam)]]",Not active,Not active,74.5 °C,negative,Sudlow’s site II,1.42 (±0.09) × 10^5 M^−1,1.85 (±0.06) × 10^5 M^−1,2.02 (±0.03) × 10^5 M^−1,2.75 (±0.19) × 10^5 M^−1
"CO.CO.CO.CO.O=C([O-])c1ccccc1Nc1ccc([N+](=O)[O-])cc1.O=C([O-])c1ccccc1Nc1ccc([N+](=O)[O-])cc1.[Co+2] [Complex 1, [Co(4′–NO2–fen)2(MeOH)4]]",Not active,Not active,83.7 °C,,Sudlow’s site I,1.38 (±0.08) × 10^5 M^−1,1.06 (±0.04) × 10^5 M^−1,1.66 (±0.09) × 10^5 M^−1,1.99 (±0.11) × 10^5 M^−1
"O=C(O)c1ccccc1Nc1ccc([N+](=O)[O-])cc1 [4′–NO2–fenH, 4′–nitrofenamic acid]",Not active,Not active,83.7 °C,,Sudlow’s site I,2.70 (±0.11) × 10^5 M^−1,1.41 (±0.06) × 10^5 M^−1,2.91 (±0.06) × 10^5 M^−1,3.22 (±0.12) × 10^5 M^−1
